The METLIN SMRT retention time set (Domingo-Almenara et al. 2019)

test: gradient 5% acetonitrile 3 min, to 50% in 2 min, to 85% in 15 min, held 3 min, 100 µL/min; settings: column: Zorbax Extend-C18 2.1 x 50 mm; eluents: water / acetonitrile, 0.1% formic acid
Summary of the method: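 Standards, all pure, were combined into mixtures of ~100 molecules and run at 100 μL/min on a Zorbax Extend-C18 column (2.1 × 50 mm, 1.8 μm) with water and acetonitrile, each containing 0.1% formic acid. A coupled quadrupole time-of-flight mass spectrometer operated in positive and negative ionization mode. Retention time values come from computationally picked adduct peaks, each inspected manually.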

Question: For `CCCN1C(=O)c2cc(S(=O)(=O)Nc3ccccc3Cl)ccc2Oc2cccnc21`, which RP-LC retention time is on record?
Answer: 1090 s

Question: With `O=C(c1cccs1)N1CCCN(c2ccc(=O)n(-c3ccccc3)n2)CC1` as the compound, how does the RP-LC retention time read?
Answer: 700 s

Question: For `CCSc1nnc(NC(=O)C2(c3cc(-c4cccs4)on3)CC2)s1`, which RP-LC retention time is on record?
Answer: 1020 s

Question: For `CC1Oc2ccc(-c3csc(NC(=O)CCc4ccccc4)n3)cc2NC1=O` (stereo unspecified), which RP-LC retention time is on record?
Answer: 1050 s

Question: For `CCCNC(=O)C1CCN(c2ccc(SCC(=O)Nc3cc(F)ccc3C)nn2)CC1`, which RP-LC retention time is on record?
Answer: 667 s

Question: With `CCNC(=O)N1CCCC1c1nc(-c2ccc(OC)cc2)no1` (stereo unspecified) as the compound, how does the RP-LC retention time read?
Answer: 761 s

Question: For `O=C(Nc1ccncc1)c1cc([N+](=O)[O-])ccc1Cl`, which RP-LC retention time is on record?
Answer: 638 s

Question: With `O=C(Cc1ccccc1Br)NC1CCCN(c2cc(-c3ccccc3)[nH]n2)C1` (stereo unspecified) as the compound, how does the RP-LC retention time read?
Answer: 811 s

Question: Which RP-LC retention time does the source give for `O=C(NCCCc1ccccc1)C1CCN(c2cnn(Cc3ccccc3)c(=O)c2)CC1` here?
Answer: 818 s

Question: For `NS(=O)(=O)c1ccc(CCNCc2ccc(-c3ccc(Cl)cc3)o2)cc1`, which RP-LC retention time is on record?
Answer: 810 s

Question: Which RP-LC retention time does the source give for `CC1CCCCN1CCN(CCC(=O)N1CCNCC1)C(=O)c1ccc(C(C)(C)C)cc1` (stereo unspecified) here?
Answer: 593 s

Question: For `O=C(NCc1ccc2c(c1)OCO2)c1c(O)c2cccnc2n(-c2ccccc2)c1=O`, which RP-LC retention time is on record?
Answer: 1120 s

Question: With `Cc1[nH]c(C)c(S(=O)(=O)N2CCC(C(=O)NC3CCCCC3)CC2)c1C(=O)N1CCCC1` as the compound, how does the RP-LC retention time read?
Answer: 676 s

Question: For `Cc1ccc2c(c1)N(C(=O)CCC(=O)NCCCN1CCC(N3CCCCC3)CC1)CC(C)O2` (stereo unspecified), which RP-LC retention time is on record?
Answer: 576 s

Question: For `CN(C)C(CNC(=O)Nc1ccccc1C(F)(F)F)c1ccco1` (stereo unspecified), which RP-LC retention time is on record?
Answer: 566 s

Question: Which RP-LC retention time does the source give for `CCc1cccc(Nc2c(C(=O)N3CCOCC3)cnc3nc(C)ccc23)c1` here?
Answer: 617 s

Question: With `O=C(Cc1ccc(F)cc1)N1CCC2(CC1)N=C(c1ccccc1)NO2` as the compound, how does the RP-LC retention time read?
Answer: 792 s

Question: Which RP-LC retention time does the source give for `COc1cc(Cl)c(NC(=O)C2CCCN(C(=O)c3cc(-c4ccncc4)n[nH]3)C2)c(OC)c1` (stereo unspecified) here?
Answer: 642 s

Question: Which RP-LC retention time does the source give for `COc1ccc(OCC(=O)Nc2ccc3c(c2)N(C(C)=O)CCC3)cc1` here?
Answer: 782 s

Question: With `CCCOc1nc2ccccc2nc1N1CCCC(C(=O)Nc2ccc(Cl)cc2)C1` (stereo unspecified) as the compound, how does the RP-LC retention time read?
Answer: 1210 s

Question: Which RP-LC retention time does the source give for `CCc1nc2cc(N3CCCC(C(=O)NCCN(C)C)C3)cnc2nc1CC` (stereo unspecified) here?
Answer: 604 s

Question: For `Clc1cccc(-c2noc(Cn3ccnc3)n2)c1`, which RP-LC retention time is on record?
Answer: 636 s

Question: Which RP-LC retention time does the source give for `Cc1nn(CC(=O)NCCCN2CCCC2)c(=O)c2nc(-c3ccccc3)sc12` here?
Answer: 620 s

Question: With `CCc1c(C2CCN(C(=O)c3ccn(CC)n3)CC2)noc1N` as the compound, how does the RP-LC retention time read?
Answer: 644 s

Question: For `CCc1cc2c3c([nH]c2cc1S(=O)(=O)N1CCN(c2ccccn2)CC1)CC(C)(C)CC3=O`, which RP-LC retention time is on record?
Answer: 695 s

Question: For `O=C1CCc2cc(S(=O)(=O)NCCc3ccc(Cl)cc3)cc3c2N1CCC3`, which RP-LC retention time is on record?
Answer: 903 s

Question: With `Cc1cccc(C)c1NC(=O)N1CCN(CCn2c(C(C)C)nc3cccnc32)CC1` as the compound, how does the RP-LC retention time read?
Answer: 602 s

Question: Which RP-LC retention time does the source give for `Cc1cccc(C)c1N1CC(c2nc3ccccc3n2CC(=O)N2CCOCC2)CC1=O` (stereo unspecified) here?
Answer: 652 s

Question: Which RP-LC retention time does the source give for `Cn1nccc1C(=O)NCc1ccc(-c2nc(-c3ccc(F)cc3)no2)s1` here?
Answer: 930 s

Question: Which RP-LC retention time does the source give for `O=C(NCCOc1ccc(F)cc1)c1ccc(S(=O)(=O)N2CCCC2)cc1` here?
Answer: 813 s

Question: With `CCCn1c(CCNC(=O)c2ccc(C)cc2)nc2cccnc21` as the compound, how does the RP-LC retention time read?
Answer: 668 s

Question: With `CNC(=O)N1CCCC(c2nc(CCOCC3CCCC3)no2)C1` (stereo unspecified) as the compound, how does the RP-LC retention time read?
Answer: 759 s

Question: For `CCN1CCN(C(=O)C2CCN(S(=O)(=O)c3c(C)nn(-c4ccccc4)c3C)CC2)CC1`, which RP-LC retention time is on record?
Answer: 621 s

Question: For `Cc1ccn2c(NC(=O)Cc3ccccc3)c(-c3ccc(F)cc3)nc2c1`, which RP-LC retention time is on record?
Answer: 669 s

Question: With `Cn1c(=O)c2nc(S(=O)(=O)CCC(=O)Nc3ccc(Cl)cc3F)n(C)c2n(C)c1=O` as the compound, how does the RP-LC retention time read?
Answer: 781 s

Question: With `COc1ccc(Cl)cc1NC(=O)CSc1ccc(-c2ccco2)nn1` as the compound, how does the RP-LC retention time read?
Answer: 944 s

Question: With `Cc1ccc(CNc2c(-c3cccc(Cl)c3)nc3ncccn23)cc1` as the compound, how does the RP-LC retention time read?
Answer: 901 s

Question: Which RP-LC retention time does the source give for `Cn1c(CCNC(=O)c2ccc(C(C)(C)C)cc2)nc2cccnc21` here?
Answer: 705 s

Question: With `Cc1nc(Nc2ccc(F)cn2)sc1C(=O)NC(C)c1ccccc1` (stereo unspecified) as the compound, how does the RP-LC retention time read?
Answer: 861 s

Question: Which RP-LC retention time does the source give for `CCOc1cc(-c2ccc(F)cc2)nc2ccc(C(=O)N3CCN(c4ccccn4)CC3)cc12` here?
Answer: 624 s

Question: Which RP-LC retention time does the source give for `Cc1ccc(C)c(CNc2nc3ccncc3n(Cc3ccccc3)c2=O)c1` here?
Answer: 798 s

Question: Which RP-LC retention time does the source give for `CC(C)c1ccc(-n2ccnc(NC(=O)Nc3cccc(Cl)c3)c2=O)cc1` here?
Answer: 1240 s

Question: With `COc1ccc(S(=O)(=O)N2CCc3c(c(-c4nnc(-c5ccccc5F)o4)nn3C)C2)cc1` as the compound, how does the RP-LC retention time read?
Answer: 882 s

Question: With `COC(=O)c1ccccc1OCc1cc(=O)oc2ccc(C)cc12` as the compound, how does the RP-LC retention time read?
Answer: 983 s

Question: With `CC(C)n1c(=O)sc2cc(S(=O)(=O)N3CCC(C(=O)N4CCOCC4)CC3)ccc21` as the compound, how does the RP-LC retention time read?
Answer: 762 s

Question: Which RP-LC retention time does the source give for `COc1cccc2cc(C(=O)Nc3ccc(-c4ccc(N5CCCC5)nn4)cc3)oc12` here?
Answer: 607 s

Question: For `O=C(NC1CCCC1)c1cccnc1N1CCSCC1`, which RP-LC retention time is on record?
Answer: 735 s

Question: With `Cc1nc2c(sc3nc(-c4ccccc4)ccc32)c(=O)n1CC(=O)Nc1ccc(C(F)(F)F)cc1` as the compound, how does the RP-LC retention time read?
Answer: 1280 s

Question: With `COc1ccc2c(c1)c(CN1CCC(C(=O)NCCC3=CCCCC3)CC1)cn2C` as the compound, how does the RP-LC retention time read?
Answer: 730 s

Question: With `Cc1nn(-c2cc(N3CCCC3)ncn2)c(C)c1CCC(=O)NCCc1ccco1` as the compound, how does the RP-LC retention time read?
Answer: 721 s

Question: Which RP-LC retention time does the source give for `O=C(CCc1c(-c2ccc(Br)cc2)nc2ccccn12)NC1CCCC1` here?
Answer: 667 s

Question: Which RP-LC retention time does the source give for `COc1cc(OC)cc(-c2nc(-c3ccc4c(c3)ncn4CCN3CCCCC3)no2)c1` here?
Answer: 680 s

Question: For `CCc1noc(NC(C)=O)c1-c1ccc(OC)c(S(=O)(=O)N2CCN(c3ncccn3)CC2)c1`, which RP-LC retention time is on record?
Answer: 723 s

Question: For `CN1C(=O)c2ccccc2Oc2ccc(C(=O)NCCCc3ccccc3)cc21`, which RP-LC retention time is on record?
Answer: 964 s

Question: With `O=C(Nc1cc(Cl)ccc1F)c1cnc(-c2ccccc2)nc1-c1ccncc1` as the compound, how does the RP-LC retention time read?
Answer: 976 s

Question: Which RP-LC retention time does the source give for `CCC(C)(C)C(=O)NC1CCN(c2cnn(CC3CC3)c(=O)c2)CC1` here?
Answer: 664 s

Question: For `O=C1COc2cc(S(=O)(=O)N3CCCC3C(=O)NC3CCCCC3)c(Cl)cc2N1` (stereo unspecified), which RP-LC retention time is on record?
Answer: 779 s

Question: For `CCc1ccc(NC(=O)N2CCc3nc(-c4ccc(OC)cc4)ncc3C2)cc1`, which RP-LC retention time is on record?
Answer: 995 s

Question: For `CCOC(=O)c1ccc(N2C(=O)c3n[nH]c(C)c3C2c2ccc(OC)cc2OC)cc1` (stereo unspecified), which RP-LC retention time is on record?
Answer: 878 s

Question: For `Cc1cc(=O)n2nc(N3CCCC(C(=O)N4CCC(Cc5ccccc5)CC4)C3)sc2n1` (stereo unspecified), which RP-LC retention time is on record?
Answer: 726 s

Question: For `c1ccc(CC2CCN(Cc3nc(-c4ccc(N5CCCCC5)nc4)no3)CC2)cc1`, which RP-LC retention time is on record?
Answer: 802 s

Question: With `COCCn1cc(CCNC(=O)Nc2cccc(Br)c2)c2cccnc21` as the compound, how does the RP-LC retention time read?
Answer: 783 s

Question: Which RP-LC retention time does the source give for `CCC(C)NC(=O)CC1CCN(C(=O)c2[nH]c(C)cc2C)CC1` (stereo unspecified) here?
Answer: 686 s

Question: Which RP-LC retention time does the source give for `CN(C)C(CNC(=O)c1cc(=O)c2cc(Cl)ccc2o1)c1cccs1` (stereo unspecified) here?
Answer: 631 s

Question: Which RP-LC retention time does the source give for `c1ccc(-c2n[nH]c(-c3ccccn3)n2)nc1` here?
Answer: 645 s

Question: For `CCN1C(=O)c2cccnc2Sc2cc(NC(=O)c3ccccc3OC)ccc21`, which RP-LC retention time is on record?
Answer: 868 s
